Results published in ChEMBL document CHEMBL1909046, “DrugMatrix in vitro pharmacology data”.

How the values were obtained:
D(3) dopamine receptor = D(3) dopamine receptor (Homo sapiens, UniProt P35462); test: DRUGMATRIX: Dopamine D3 radioligand binding (ligand: [3H] Spiperone); format: cell membranes, CHO, Membrane; settings: for Ki: read-out: Ki
[1] = DRUGMATRIX: Nicotinic Acetylcholine radioligand binding (ligand: [125I] Epibatidine); format: cell membranes, Membrane; settings: imr-32; Not Active = under 50% inhibition at 10 µM
[2] = target: Sigma non-opioid intracellular receptor 1 (Homo sapiens, UniProt Q99720); test: DRUGMATRIX: Sigma1 radioligand binding (ligand: [3H] Haloperidol); format: cell membranes, Jurkat, Membrane; settings: jurkat; Not Active = under 50% inhibition at 10 µM
[3] = target: 5-hydroxytryptamine receptor 1B (Rattus norvegicus, UniProt P28564); format: cell membranes, Wistar, Cerebral cortex, Membrane; settings: for Ki: read-out: Ki; as to all read-outs here: in other assays of this panel Not Active means under 50% inhibition at 10 µM
[4] = DRUGMATRIX: Atrial Natriuretic Factor (ANF) radioligand binding (ligand: [125I] ANF (rat)); format: cell membranes, Cavia porcellus, Dunkin-Hartley, Adrenal gland, Membrane; settings: Not Active = under 50% inhibition at 10 µM
Acetylcholinesterase = Acetylcholinesterase (Homo sapiens, UniProt P22303); test: DRUGMATRIX: Acetylcholinesterase enzyme inhibition (substrate: acetylthiocholine); format: cell-based, HEK293; settings: hek293; Not Active = under 50% inhibition at 10 µM
Sequence of Acetylcholinesterase (P22303 whole entry): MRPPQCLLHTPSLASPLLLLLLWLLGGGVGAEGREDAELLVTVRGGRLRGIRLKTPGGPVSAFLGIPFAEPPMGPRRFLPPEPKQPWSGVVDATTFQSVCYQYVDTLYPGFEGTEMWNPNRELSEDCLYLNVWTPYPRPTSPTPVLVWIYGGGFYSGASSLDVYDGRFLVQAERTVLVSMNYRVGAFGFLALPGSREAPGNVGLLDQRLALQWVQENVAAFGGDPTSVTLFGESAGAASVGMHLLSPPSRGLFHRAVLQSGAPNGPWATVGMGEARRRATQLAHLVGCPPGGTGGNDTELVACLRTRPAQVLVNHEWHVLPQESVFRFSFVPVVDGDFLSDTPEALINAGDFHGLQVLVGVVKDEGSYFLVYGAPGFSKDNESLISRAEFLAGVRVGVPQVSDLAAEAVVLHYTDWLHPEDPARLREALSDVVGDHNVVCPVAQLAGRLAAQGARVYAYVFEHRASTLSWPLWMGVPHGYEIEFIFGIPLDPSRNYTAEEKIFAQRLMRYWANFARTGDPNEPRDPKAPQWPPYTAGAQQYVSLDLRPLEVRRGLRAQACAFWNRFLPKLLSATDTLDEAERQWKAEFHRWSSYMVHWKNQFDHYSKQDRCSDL

Sequence of 5-hydroxytryptamine receptor 1B (P28564 whole entry): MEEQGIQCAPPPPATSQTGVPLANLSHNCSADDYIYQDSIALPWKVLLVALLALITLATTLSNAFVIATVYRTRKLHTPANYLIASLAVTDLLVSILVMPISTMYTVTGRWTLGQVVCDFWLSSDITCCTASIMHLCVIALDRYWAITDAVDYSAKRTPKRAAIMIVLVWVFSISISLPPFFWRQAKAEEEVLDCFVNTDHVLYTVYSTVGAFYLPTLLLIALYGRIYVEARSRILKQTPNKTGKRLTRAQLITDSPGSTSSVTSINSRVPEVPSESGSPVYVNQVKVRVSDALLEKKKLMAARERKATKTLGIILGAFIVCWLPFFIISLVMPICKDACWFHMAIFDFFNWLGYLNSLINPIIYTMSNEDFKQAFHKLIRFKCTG
Sequence of D(3) dopamine receptor (P35462 whole entry): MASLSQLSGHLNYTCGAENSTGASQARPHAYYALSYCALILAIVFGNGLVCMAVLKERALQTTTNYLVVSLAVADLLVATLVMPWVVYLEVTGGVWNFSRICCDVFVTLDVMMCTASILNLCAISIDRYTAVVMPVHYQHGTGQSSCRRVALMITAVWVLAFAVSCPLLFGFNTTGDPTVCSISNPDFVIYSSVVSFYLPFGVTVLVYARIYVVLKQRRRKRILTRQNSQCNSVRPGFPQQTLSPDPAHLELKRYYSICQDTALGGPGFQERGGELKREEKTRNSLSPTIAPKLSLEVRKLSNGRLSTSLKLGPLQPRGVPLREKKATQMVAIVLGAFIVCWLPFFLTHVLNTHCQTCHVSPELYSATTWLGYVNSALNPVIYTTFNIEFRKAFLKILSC
Sequence of Sigma non-opioid intracellular receptor 1 (Q99720 whole entry): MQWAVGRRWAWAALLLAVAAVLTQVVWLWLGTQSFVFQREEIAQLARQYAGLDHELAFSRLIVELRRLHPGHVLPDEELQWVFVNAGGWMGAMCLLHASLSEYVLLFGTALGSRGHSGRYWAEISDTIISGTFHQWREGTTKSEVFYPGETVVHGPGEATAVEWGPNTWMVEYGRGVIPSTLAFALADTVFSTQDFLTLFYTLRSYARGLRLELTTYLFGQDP

SMILES | IC50 (D(3) dopamine receptor; read-out: IC50) | Ki (D(3) dopamine receptor) | IC50 [1] | Ki [1] | IC50 [2] | IC50 ([3]; read-out: IC50) | Ki [3] | IC50 [4] | Ki [4] | IC50 (Acetylcholinesterase) | IC50 (D(3) dopamine receptor; cho) | IC50 [3]
CC(C)[C@@]1(NC(=O)[C@@H]2C[C@@H]3c4cccc5[nH]cc(c45)C[C@H]3N(C)C2)O[C@@]2(O)[C@@H]3CCCN3C(=O)[C@H](Cc3ccccc3)N2C1=O.CS(=O)(=O)O [DIHYDROERGOCRISTINE MESYLATE] | 2.29 nM | 0.777 nM | Not Active | Not Active | Not Active | 24 nM | 11 nM | Not Active | Not Active | Not Active |  | 
CC(=O)O[C@@]12CO[C@@H]1C[C@H](O)[C@@]1(C)C(=O)[C@H](O)C3=C(C)[C@@H](OC(=O)[C@H](O)[C@@H](NC(=O)OC(C)(C)C)c4ccccc4)C[C@@](O)([C@@H](OC(=O)c4ccccc4)[C@H]21)C3(C)C.O.O.O [DOCETAXEL] |  |  | Not Active | Not Active | Not Active |  |  | Not Active | Not Active | Not Active | Not Active | Not Active
COc1cc2nc(N3CCN(C(=O)C4COc5ccccc5O4)CC3)nc(N)c2cc1OC (stereo not drawn) [DOXAZOSIN] |  |  | Not Active | Not Active | Not Active |  |  | Not Active | Not Active | Not Active | Not Active | Not Active
C[C@H]1c2cccc(O)c2C(=O)C2=C(O)[C@]3(O)C(=O)C(C(N)=O)=C(O)[C@@H](N(C)C)[C@@H]3[C@@H](O)[C@@H]21.O [DOXYCYCLINE] |  |  | Not Active | Not Active | Not Active |  |  | Not Active | Not Active | Not Active | Not Active | Not Active
CC(C)[C@H]1C(=O)N2CCC[C@H]2[C@]2(O)O[C@](NC(=O)[C@@H]3C=C4c5cccc6[nH]cc(c56)C[C@H]4N(C)C3)(C(C)C)C(=O)N12 [ERGOCORNINE] | 2.86 nM | 0.971 nM | Not Active | Not Active | Not Active | 30 nM | 19 nM | Not Active | Not Active | Not Active |  | 
C[C@]12CC[C@@H]3c4ccc(O)cc4CC[C@H]3[C@@H]1CCC2=O [ESTRONE] |  |  | Not Active | Not Active | Not Active |  |  | Not Active | Not Active | Not Active | Not Active | Not Active
OC(Cn1cncn1)(Cn1cncn1)c1ccc(F)cc1F [FLUCONAZOLE] |  |  | Not Active | Not Active | Not Active |  |  | Not Active | Not Active | Not Active | Not Active | Not Active
CC(C)C(=O)Nc1ccc([N+](=O)[O-])c(C(F)(F)F)c1 [FLUTAMIDE] |  |  | Not Active | Not Active | Not Active |  |  | Not Active | Not Active | Not Active | Not Active | Not Active
N=C(N)NCCN1CCCCCCC1 [GUANETHIDINE] |  |  | Not Active | Not Active | Not Active |  |  | Not Active | Not Active | Not Active | Not Active | Not Active
CC1(C)O[C@@H]2C[C@H]3[C@@H]4CCC5=CC(=O)CC[C@]5(C)[C@@]4(F)[C@@H](O)C[C@]3(C)[C@]2(C(=O)CCl)O1 [HALCINONIDE] |  |  | Not Active | Not Active | Not Active |  |  | Not Active | Not Active | Not Active | Not Active | Not Active
O=c1[nH]c(=O)n([C@H]2C[C@H](O)[C@@H](CO)O2)cc1I [IDOXURIDINE] |  |  | Not Active | Not Active | Not Active |  |  | Not Active | Not Active | Not Active | Not Active | Not Active
CC1Cc2ccccc2N1NC(=O)c1ccc(Cl)c(S(N)(=O)=O)c1 (stereo not drawn) [INDAPAMIDE] |  |  | Not Active | Not Active | Not Active |  |  | Not Active | Not Active | Not Active | Not Active | Not Active
Nc1nc(N)nc(-c2cc(Cl)ccc2Cl)n1.O=C(O)/C=C\C(=O)O [IRSOGLADINE MALEATE] |  |  | Not Active | Not Active | Not Active |  |  | Not Active | Not Active | Not Active | Not Active | Not Active
CCC(C)n1ncn(-c2ccc(N3CCN(c4ccc(OCC5COC(Cn6cncn6)(c6ccc(Cl)cc6Cl)O5)cc4)CC3)cc2)c1=O (stereo not drawn) [ITRACONAZOLE] |  |  | Not Active | Not Active | Not Active |  |  | Not Active | Not Active | Not Active | Not Active | Not Active
CCCCN1CCCC[C@H]1C(=O)Nc1c(C)cccc1C [LEVOBUPIVACAINE] |  |  | Not Active | Not Active | Not Active |  |  | Not Active | Not Active | Not Active | Not Active | Not Active
CCCCc1nc(Cl)c(CO)n1Cc1ccc(-c2ccccc2-c2nnn[nH]2)cc1 [LOSARTAN] |  |  | Not Active | Not Active | Not Active |  |  | Not Active | Not Active | Not Active | Not Active | Not Active
Sc1ncnc2nc[nH]c12 [MERCAPTOPURINE ANHYDROUS] |  |  | Not Active | Not Active | Not Active |  |  | Not Active | Not Active | Not Active | Not Active | Not Active
C[C@](N)(Cc1ccc(O)c(O)c1)C(=O)O [METHYLDOPA] |  |  | Not Active | Not Active | Not Active |  |  | Not Active | Not Active | Not Active | Not Active | Not Active
C[C@]12CCC(=O)C=C1CC[C@@H]1[C@@H]2CC[C@@]2(C)[C@H]1CC[C@]2(C)O [METHYLTESTOSTERONE] |  |  | Not Active | Not Active | Not Active |  |  | Not Active | Not Active | Not Active | Not Active | Not Active
Cc1ccccc1N1C(=O)c2cc(S(N)(=O)=O)c(Cl)cc2NC1C (stereo not drawn) [METOLAZONE] |  |  | Not Active | Not Active | Not Active |  |  | Not Active | Not Active | Not Active | Not Active | Not Active
COCCc1ccc(OCC(O)CNC(C)C)cc1 (stereo not drawn) [METOPROLOL] |  |  | Not Active | Not Active | Not Active |  |  | Not Active | Not Active | Not Active | Not Active | Not Active
CCn1cc(C(=O)O)c(=O)c2cc(F)c(N3CCNCC3)cc21 [NORFLOXACIN] |  |  | Not Active | Not Active | Not Active |  |  | Not Active | Not Active | Not Active | Not Active | Not Active
NC1=NC(=O)C(c2ccccc2)O1 (stereo not drawn) [PEMOLINE] |  |  | Not Active | Not Active | Not Active |  |  | Not Active | Not Active | Not Active | Not Active | Not Active
